PMC10979456, “Trinucleotide mRNA Cap Analogue N6-Benzylated at the Site of Posttranscriptional ^m6Am Mark Facilitates mRNA Purification and Confers Superior Translational Properties In Vitro and In Vivo” (Journal of the American Chemical Society, 2024)

Tests used:
Experiment in all cases: time-synchronized fluorescence quenching titration
Format in all cases: binding
heIF4E1a = molecular target: T1, heIF4E1a (Homo sapiens, UniProt P06730)
T1 construct: gene EIF4E; not described in main text (experimental details in supplement)
T1 sequence (P06730 2-217): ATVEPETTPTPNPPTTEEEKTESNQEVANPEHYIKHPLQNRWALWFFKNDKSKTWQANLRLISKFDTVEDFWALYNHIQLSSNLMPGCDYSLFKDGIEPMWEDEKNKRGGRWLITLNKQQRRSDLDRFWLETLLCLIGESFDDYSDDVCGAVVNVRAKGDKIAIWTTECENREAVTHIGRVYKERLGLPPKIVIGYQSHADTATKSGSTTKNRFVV

heIF4E3 = molecular target: T2, heIF4E3 (Homo sapiens, UniProt Q8N5X7)
T2 construct: gene EIF4E3; not described in main text (experimental details in supplement)
T2 sequence (Q8N5X7 whole entry): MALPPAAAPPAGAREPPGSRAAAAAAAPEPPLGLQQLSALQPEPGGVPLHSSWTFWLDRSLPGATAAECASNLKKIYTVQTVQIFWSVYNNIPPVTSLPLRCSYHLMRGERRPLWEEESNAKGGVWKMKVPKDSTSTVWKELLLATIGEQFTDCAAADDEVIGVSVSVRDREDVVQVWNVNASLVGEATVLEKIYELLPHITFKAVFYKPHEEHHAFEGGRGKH
Description: time-synchronized fluorescence quenching titration on heIF4E3

h4EHP (eIF4E2) = molecular target: T3, h4EHP (eIF4E2) (Homo sapiens, UniProt O60573)
T3 construct: not described in main text (experimental details in supplement)
T3 sequence (O60573 1-245): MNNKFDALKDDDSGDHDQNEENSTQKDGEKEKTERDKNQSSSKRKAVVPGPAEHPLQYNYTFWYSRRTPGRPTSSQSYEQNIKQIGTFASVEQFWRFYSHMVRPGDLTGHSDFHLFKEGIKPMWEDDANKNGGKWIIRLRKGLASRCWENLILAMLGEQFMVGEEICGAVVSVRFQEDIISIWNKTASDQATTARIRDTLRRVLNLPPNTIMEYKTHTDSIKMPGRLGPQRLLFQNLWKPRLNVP
Description: time-synchronized fluorescence quenching titration on h4EHP (eIF4E2)

Kd (heIF4E1a) [nM]	Kd (heIF4E3) [nM]	Kd (h4EHP (eIF4E2)) [nM]	Structure (SMILES)
23.9 ± 0.5	95.7 ± 1.7	687 ± 10	CO[C@@H]1[C@H](OP(=O)(O)OC[C@H]2O[C@@H](n3cnc4c(=O)[nH]c(N)nc43)[C@H](O)[C@@H]2O)[C@@H](COP(=O)(O)OP(=O)(O)OP(=O)(O)OC[C@H]2O[C@@H](n3c[n+](C)c4c(=O)[nH]c(N)nc43)[C@H](O)[C@@H]2O)O[C@H]1n1cnc2c(NCc3ccccc3)ncnc21 [compound 1, m^7Gppp^Bn6AmpG]
	129 ± 14	611 ± 19	C[n+]1cn([C@@H]2O[C@H](COP(=O)(O)OP(=O)(O)OP(=O)(O)O)[C@@H](O)[C@H]2O)c2nc(N)[nH]c(=O)c21 [m^7GTP]
42.1 ± 0.7	153 ± 3	1020 ± 19	CO[C@@H]1[C@H](OP(=O)(O)OC[C@H]2O[C@@H](n3cnc4c(=O)[nH]c(N)nc43)[C@H](O)[C@@H]2O)[C@@H](COP(=O)(O)OP(=O)(O)OP(=O)(O)OC[C@H]2O[C@@H](n3c[n+](C)c4c(=O)[nH]c(N)nc43)[C@H](O)[C@@H]2O)O[C@H]1n1cnc2c(N)ncnc21 [m^7GpppAmpG]
46.4 ± 0.6	140 ± 4	1340 ± 32	CNc1ncnc2c1ncn2[C@@H]1O[C@H](COP(=O)(O)OP(=O)(O)OP(=O)(O)OC[C@H]2O[C@@H](n3c[n+](C)c4c(=O)[nH]c(N)nc43)[C@H](O)[C@@H]2O)[C@@H](OP(=O)(O)OC[C@H]2O[C@@H](n3cnc4c(=O)[nH]c(N)nc43)[C@H](O)[C@@H]2O)[C@H]1OC [m^7Gppp^m6AmpG]
